According to patent publication US20240287076A1, “COMPOUNDS FOR TARGETING DEGRADATION OF BRUTON'S TYROSINE KINASE” (BIOGEN MA INC., priority 2021, published 2024):

The compounds below were run against T1, BTK (Homo sapiens, UniProt Q06187) (assay: BTK degradation assay using the HiBiT Method (Nano-Glo HiBiT Lytic Assay, GM01501.3 cells)). Settings: HiBiT Degradation on GM01501.3 BTK @ 6 hours.
T1 construct: The GM01501.3 cell line endogenously expresses BTK with a HiBiT fusion tag via CRISPR knock-in at its C-terminal region; endogenous in cells; host or cells: GM01501.3 (GM01501 cells engineered by CRISPR knock-in of HiBiT at the BTK locus)
T1 sequence (Q06187 whole entry, the tested form may be a part): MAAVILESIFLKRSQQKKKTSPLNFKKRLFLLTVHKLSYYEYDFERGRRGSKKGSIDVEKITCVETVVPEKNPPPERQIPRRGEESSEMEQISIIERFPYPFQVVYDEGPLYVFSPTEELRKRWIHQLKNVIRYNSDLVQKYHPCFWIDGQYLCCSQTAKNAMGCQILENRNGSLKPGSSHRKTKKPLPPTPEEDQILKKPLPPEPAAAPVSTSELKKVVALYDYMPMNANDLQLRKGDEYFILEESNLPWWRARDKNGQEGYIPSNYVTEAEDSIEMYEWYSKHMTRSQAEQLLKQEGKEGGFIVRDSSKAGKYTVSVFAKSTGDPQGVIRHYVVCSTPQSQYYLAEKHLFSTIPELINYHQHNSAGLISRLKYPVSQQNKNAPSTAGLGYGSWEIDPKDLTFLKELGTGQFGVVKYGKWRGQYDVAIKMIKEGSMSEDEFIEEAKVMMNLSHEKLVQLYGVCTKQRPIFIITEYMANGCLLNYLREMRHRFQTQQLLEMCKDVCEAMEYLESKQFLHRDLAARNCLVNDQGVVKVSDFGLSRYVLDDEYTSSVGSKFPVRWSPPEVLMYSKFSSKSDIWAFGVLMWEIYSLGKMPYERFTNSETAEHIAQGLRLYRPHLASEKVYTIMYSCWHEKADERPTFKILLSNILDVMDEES
Assay type: cell-based
Outline: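 CRISPR knock-in GM01501.3 cells expressing endogenous BTK with C-terminal HiBiT tag, treated 6 h at 37 °C with compounds, 11-point half-log titration from 10 μM top, duplicates. Remaining BTK quantified by Nano-Glo HiBiT lytic luminescence versus DMSO controls; DC50 reported.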

DC50, < 100 nM:
Cc1cc(-c2ncnn3cc(CCCCN4CCC(c5ccc(C6CCC(=O)NC6=O)cc5)CC4)cc23)ccc1CNC(=O)c1noc(C(C)(C)C)n1 (stereo not shown) [Example 128, 5-tert-butyl-N-[[4-[6-[4-[4-[4-(2,6-dioxo-3-piperidyl)phenyl]-1-piperidyl]butyl]pyrrolo[2,1-f][1,2,4]triazin-4-yl]-2-methyl-phenyl]methyl]-1,2,4-oxadiazole-3-carboxamide]
Cc1cc(-c2ncnn3cc(CCCCN4CCC(c5ccc(N6CCC(=O)NC6=O)cc5)CC4)cc23)ccc1CNC(=O)c1noc(C(C)(C)C)n1 [Example 129, 5-tert-butyl-N-[[4-[6-[4-[4-[4-(2,4-dioxohexahydropyrimidin-1-yl)phenyl]-1-piperidyl]butyl]pyrrolo[2,1-f][1,2,4]triazin-4-yl]-2-methyl-phenyl]methyl]-1,2,4-oxadiazole-3-carboxamide]
Cc1cc(-c2ncnn3cc(CCCCN4CCC(c5ccc(NC6CCC(=O)NC6=O)cc5)CC4)cc23)ccc1CNC(=O)c1noc(C(C)(C)C)n1 (stereo not shown) [Example 130, 5-tert-butyl-N-[[4-[6-[4-[4-[4-[(2,6-dioxo-3-piperidyl)amino]phenyl]-1-piperidyl]butyl]pyrrolo[2,1-f][1,2,4]triazin-4-yl]-2-methyl-phenyl]methyl]-1,2,4-oxadiazole-3-carboxamide]
Cc1cc(-c2ncnn3cc(CCCCN4CCN(c5ccc(NC6CCC(=O)NC6=O)cc5)CC4)cc23)ccc1CNC(=O)c1noc(C(C)(C)C)n1 (stereo not shown) [Example 131, 5-tert-butyl-N-[[4-[6-[4-[4-[4-[(2,6-dioxo-3-piperidyl)amino]phenyl]piperazin-1-yl]butyl]pyrrolo[2,1-f][1,2,4]triazin-4-yl]-2-methyl-phenyl]methyl]-1,2,4-oxadiazole-3-carboxamide]
Cc1cc(-c2ncnn3cc(CCCCN4CCC(c5ccc(NC6CCC(=O)NC6=O)cc5)C(F)(F)C4)cc23)ccc1CNC(=O)c1noc(C(C)(C)C)n1 (stereo not shown) [Example 132, 5-tert-butyl-N-[[4-[6-[4-[4-[4-[(2,6-dioxo-3-piperidyl)amino]phenyl]-3,3-difluoro-1-piperidyl]butyl]pyrrolo[2,1-f][1,2,4]triazin-4-yl]-2-methyl-phenyl]methyl]-1,2,4-oxadiazole-3-carboxamide]
Cc1cc(-c2ncnn3cc(CCCCN4CCC(c5ccc6c(N7CCC(=O)NC7=O)nn(C)c6c5)CC4)cc23)ccc1CNC(=O)c1noc(C(C)(C)C)n1 [Example 133, 5-tert-butyl-N-[[4-[6-[4-[4-[3-(2,4-dioxohexahydropyrimidin-1-yl)-1-methyl-indazol-6-yl]-1-piperidyl]butyl]pyrrolo[2,1-f][1,2,4]triazin-4-yl]-2-methyl-phenyl]methyl]-1,2,4-oxadiazole-3-carboxamide]
CC(C)(C)c1nc(C(=O)NCc2ccc(-c3ncnn4cc(CCCCN5CCC(c6ccc(NC7CCC(=O)NC7=O)cn6)CC5)cc34)cc2F)no1 (stereo not shown) [Example 134, 5-tert-butyl-N-[[4-[6-[4-[4-[5-[(2,6-dioxo-3-piperidyl)amino]-2-pyridyl]-1-piperidyl]butyl]pyrrolo[2,1-f][1,2,4]triazin-4-yl]-2-fluoro-phenyl]methyl]-1,2,4-oxadiazole-3-carboxamide]
CC(C)(C)OC1CN(C(=O)NCc2ccc(-c3ncnn4cc(CCCCN5CCC(c6ccc(NC7CCC(=O)NC7=O)cn6)CC5)cc34)cc2F)C1 (stereo not shown) [Example 135, 3-tert-butoxy-N-[[4-[6-[4-[4-[5-[(2,6-dioxo-3-piperidyl)amino]-2-pyridyl]-1-piperidyl]butyl]pyrrolo[2,1-f][1,2,4]triazin-4-yl]-2-fluoro-phenyl]methyl]azetidine-1-carboxamide]
CC(C)(C)c1nc(C(=O)NCc2ccc(-c3ncnn4cc(CCCCN5CCC(c6c(F)cc(C7CCC(=O)NC7=O)cc6F)CC5)cc34)cc2F)no1 (stereo not shown) [Example 136, 5-tert-butyl-N-[[4-[6-[4-[4-[4-(2,6-dioxo-3-piperidyl)-2,6-difluoro-phenyl]-1-piperidyl]butyl]pyrrolo[2,1-f][1,2,4]triazin-4-yl]-2-fluoro-phenyl]methyl]-1,2,4-oxadiazole-3-carboxamide]
CC(C)(C)c1nc(C(=O)NCc2ccc(-c3ncnn4cc(CCCCN5CCC(n6ccc(NC7CCC(=O)NC7=O)n6)CC5)cc34)cc2F)no1 (stereo not shown) [Example 137, 5-tert-butyl-N-[[4-[6-[4-[4-[3-[(2,6-dioxo-3-piperidyl)amino]pyrazol-1-yl]-1-piperidyl]butyl]pyrrolo[2,1-f][1,2,4]triazin-4-yl]-2-fluoro-phenyl]methyl]-1,2,4-oxadiazole-3-carboxamide]
CC(C)(C)c1nc(C(=O)NCc2ccc(-c3ncnn4cc(CCCCN5CCC(c6ccc(NC7CCC(=O)NC7=O)nc6)CC5)cc34)cc2F)no1 (stereo not shown) [Example 138, 5-tert-butyl-N-[[4-[6-[4-[4-[6-[(2,6-dioxo-3-piperidyl)amino]-3-pyridyl]-1-piperidyl]butyl]pyrrolo[2,1-f][1,2,4]triazin-4-yl]-2-fluoro-phenyl]methyl]-1,2,4-oxadiazole-3-carboxamide]
CC(C)(C)c1nc(C(=O)NCc2ccc(-c3ncnn4cc(CCCCN5CCN(c6ccc(NC7CCC(=O)NC7=O)cn6)CC5)cc34)cc2F)no1 (stereo not shown) [Example 139, 5-tert-butyl-N-[[4-[6-[4-[4-[5-[(2,6-dioxo-3-piperidyl)amino]-2-pyridyl]piperazin-1-yl]butyl]pyrrolo[2,1-f][1,2,4]triazin-4-yl]-2-fluoro-phenyl]methyl]-1,2,4-oxadiazole-3-carboxamide]
CC(C)(C)c1nc(C(=O)NCc2ccc(-c3ncnn4cc(CCCCN5CCC(c6ccc(C7(C)CCC(=O)NC7=O)cc6)CC5)cc34)cc2F)no1 (stereo not shown) [Example 140, 5-tert-butyl-N-[[2-fluoro-4-[6-[4-[4-[4-(3-methyl-2,6-dioxo-3-piperidyl)phenyl]-1-piperidyl]butyl]pyrrolo[2,1-f][1,2,4]triazin-4-yl]phenyl]methyl]-1,2,4-oxadiazole-3-carboxamide]
Cc1cc(-c2ncnn3cc(COCCN4CCC(c5ccc(NC6CCC(=O)NC6=O)cc5)CC4)cc23)ccc1CNC(=O)c1noc(C(C)(C)C)n1 (stereo not shown) [Example 143, 5-tert-butyl-N-[[4-[6-[2-[4-[4-[(2,6-dioxo-3-piperidyl)amino]phenyl]-1-piperidyl]ethoxymethyl]pyrrolo[2,1-f][1,2,4]triazin-4-yl]-2-methyl-phenyl]methyl]-1,2,4-oxadiazole-3-carboxamide]
Cc1cc(-c2ncnn3cc(COCCN4CCC(c5ccc(C6CCC(=O)NC6=O)cc5)CC4)cc23)ccc1CNC(=O)c1noc(C(C)(C)C)n1 (stereo not shown) [Example 144, 5-tert-butyl-N-[[4-[6-[2-[4-[4-(2,6-dioxo-3-piperidyl)phenyl]-1-piperidyl]ethoxymethyl]pyrrolo[2,1-f][1,2,4]triazin-4-yl]-2-methyl-phenyl]methyl]-1,2,4-oxadiazole-3-carboxamide]
Cc1cc(-c2ncnn3cc(C4CC4CN4CCC(c5ccc(NC6CCC(=O)NC6=O)cc5)CC4)cc23)ccc1CNC(=O)c1noc(C(C)(C)C)n1 (stereo not shown) [Example 145, 5-tert-butyl-N-[[4-[6-[2-[[4-[4-[(2,6-dioxo-3-piperidyl)amino]phenyl]-1-piperidyl]methyl]cyclopropyl]pyrrolo[2,1-f][1,2,4]triazin-4-yl]-2-methyl-phenyl]methyl]-1,2,4-oxadiazole-3-carboxamide]
